Source: ChEMBL document CHEMBL3758122, “Multitarget opioid ligands in pain relief: New players in an old game” (Eur J Med Chem, 2016)
Starred links: 1 amine or outer side, 2 acyl side, 3 side chain; linkers in the order of their positions; H or OH if unused. Positions of bridges follow the written chain, without caps; N, C: chain ends. Non-standard residues stand in square brackets, D forms with d. Residues, ends and D or L forms follow the SMILES beside them. *: point of attachment. Dmt = Cc1cc(O)cc(C)c1C[C@H](N)C(=O)O; Tic = O=C(O)[C@@H]1Cc2ccccc2CN1; dTic = O=C(O)[C@H]1Cc2ccccc2CN1; NHBn = c1ccc(CN*)cc1; CH2 = C([*:1])[*:2]; NHPh = c1ccc(N*)cc1

Assays:
[1] = target: T1, Delta-type opioid receptor (Homo sapiens, UniProt P41143); assay: Binding affinity at delta opioid receptor (unknown origin)
[2] = target: T2, Mu-type opioid receptor (Homo sapiens, UniProt P35372); assay: Binding affinity at mu opioid receptor (unknown origin)
[3] = target: T3, Kappa-type opioid receptor (Homo sapiens, UniProt P41145); assay: Binding affinity to kappa opioid receptor (unknown origin)
[4] = target: Mu-type opioid receptor (Rattus norvegicus) (UniProt P33535); assay: (§1) Agonist activity at rat mu opioid receptor transfected in C6 cells by [35S]GTPgammaS binding assay; assay type: functional, cell-based
[5] = target: Delta-type opioid receptor (Rattus norvegicus) (UniProt P33533); assay: (§2) Agonist activity at rat delta opioid receptor transfected in C6 cells by [35S]GTPgammaS binding assay; assay type: functional, cell-based
[6] = tested on: Rattus norvegicus; assay: Analgesic activity in sc dosed rat by tail flick test; assay type: functional
[7] = target: T2, Mu-type opioid receptor; assay: Agonist activity at human mu opioid receptor expressed in CHO cells by [35S]GTP-gammaS binding assay
[8] = target: T2, Mu-type opioid receptor; assay: Displacement of [3H]DAMGO from human mu opioid receptor expressed in CHO cell membrane; assay type: cell membranes
[9] = target: T1, Delta-type opioid receptor; assay: Displacement of [3H]naltrindole from human delta opioid receptor expressed in CHO cell membrane; assay type: cell membranes
[10] = target: T1, Delta-type opioid receptor; assay: Antagonist activity at human delta opioid receptor expressed in CHO cell membrane assessed as inhibition of […]-induced [35S]-GTP-gammaS binding; assay type: cell membranes
[11] = target: Mu-type opioid receptor (Rattus norvegicus, UniProt P33535); assay: as §1; assay type: functional, cell-based
[12] = target: Delta-type opioid receptor (Rattus norvegicus, UniProt P33533); assay: as §2; assay type: functional, cell-based
[13] = target: T3, Kappa-type opioid receptor; assay: Displacement of [3H]U69,593 from human kappa opioid receptor expressed in CHO cell membrane; assay type: cell membranes
[14] = target: T2, Mu-type opioid receptor; assay: Partial agonist activity at mu opioid receptor (unknown origin) expressed in CHO cell membrane assessed as stimulation of [35S]GTP-gamma-S binding; assay type: cell membranes
[15] = tested on: Mus musculus; assay: Toxicity in sc dosed Kunming mouse assessed as sedation by rotarod test; assay type: organism-based; conditions: in vivo
[16] = tested on: Mus musculus; assay: Antinociceptive activity in sc dosed Kunming mouse measured after 30 mins by hot plate test; assay type: functional; conditions: 0.5 h
[17] = target: T2, Mu-type opioid receptor; assay: Displacement of [3H]D-Ala2,N-Me-Phe4,Gly5-ol]-Enkephalin from human mu opioid receptor expressed in CHO cell membrane; assay type: cell membranes
[18] = target: T4, Delta-type opioid receptor (Mus musculus, UniProt P32300); assay: Agonist activity at delta-opioid receptor in mouse vas deferens; assay type: tissue-based
[19] = target: T4, Delta-type opioid receptor; assay: Antagonist activity at delta-opioid receptor in mouse vas deferens assessed as inhibition of DPDPE-induced inhibition of electrically induced twitches; assay type: tissue-based; conditions: read-out: pA2 (converted)
[20] = target: Mu-type opioid receptor (Cavia porcellus, UniProt P97266); assay: Agonist activity at mu-opioid receptor in guinea pig ileum assessed as inhibition of electrically induced twitches; assay type: tissue-based
[21] = target: T1, Delta-type opioid receptor; assay: Displacement of [3H]DPN from human delta opioid receptor expressed in CHO cells by liquid scintillation counting; assay type: cell-based
[22] = target: T2, Mu-type opioid receptor; assay: Displacement of [3H]DPN from human mu opioid receptor expressed in CHO cells by liquid scintillation counting; assay type: cell-based
[23] = target: Delta-type opioid receptor (Mus musculus) (UniProt P32300); assay: Antagonist activity at delta-opioid receptor in mouse vas deferens; assay type: tissue-based
[24] = tested on: Mus musculus; assay: Antinociceptive activity in icv dosed mouse after 20 mins by tail flick test; assay type: functional
[25] = target: T2, Mu-type opioid receptor; assay: Agonist activity at mu opioid receptor (unknown origin) assessed as [35S]GTPgammaS binding by cell based assay; assay type: functional
[26] = target: T1, Delta-type opioid receptor; assay: Partial agonist activity at delta opioid receptor (unknown origin) assessed as [35S]GTPgammaS binding by cell based assay
[27] = target: T3, Kappa-type opioid receptor; assay: Agonist activity at human kappa opioid receptor expressed in CHO cell membrane by [35S]GTP-gammaS binding assay
[28] = target: T1, Delta-type opioid receptor; assay: Antagonist activity at human delta opioid receptor expressed in CHO cell membrane assessed as inhibition of DPDPE-induced [35S]-GTP-gammaS binding; assay type: cell membranes
[29] = target: T3, Kappa-type opioid receptor; assay: Agonist activity at kappa opioid receptor (unknown origin) assessed as [35S]GTPgammaS binding by cell based assay; assay type: functional
[30] = target: T1, Delta-type opioid receptor; assay: Partial agonist activity at delta opioid receptor (unknown origin) assessed as inhibition of adenylyl cyclase activity
[31] = target: Kappa-type opioid receptor (Rattus norvegicus, UniProt P34975); assay: Displacement of [3H]DAMGO from kappa opioid receptor in albino Sprague-Dawley rat after 90 mins by liquid scintillation
[32] = target: T1, Delta-type opioid receptor; assay: Antagonist activity at […] delta opioid receptor in CD1 mouse assessed as electrically induced twitches
[33] = target: T1, Delta-type opioid receptor; assay: Displacement of [3H]DPDPE from human delta opioid receptor expressed in CHO cells; assay type: cell-based
[34] = tested on: Mus musculus; assay: Antinociceptive activity in sc dosed Swiss Webster mouse measured after 30 mins by hot plate test; assay type: functional; conditions: 0.5 h
[35] = target: T1, Delta-type opioid receptor; assay: Agonist activity at human delta-opioid receptor expressed in CHO cells by [35S]GTPgammaS binding assay; assay type: functional, cell-based

T1 sequence (P41143 whole entry): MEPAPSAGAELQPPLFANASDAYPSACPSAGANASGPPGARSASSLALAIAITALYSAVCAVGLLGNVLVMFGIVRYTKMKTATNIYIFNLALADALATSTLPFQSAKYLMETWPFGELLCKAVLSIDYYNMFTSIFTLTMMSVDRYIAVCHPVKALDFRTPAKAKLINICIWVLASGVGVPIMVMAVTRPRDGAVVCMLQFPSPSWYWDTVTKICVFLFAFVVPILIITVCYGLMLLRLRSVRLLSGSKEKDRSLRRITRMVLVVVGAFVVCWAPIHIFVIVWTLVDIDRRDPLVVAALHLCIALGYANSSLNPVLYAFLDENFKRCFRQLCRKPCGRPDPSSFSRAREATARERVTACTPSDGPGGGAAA
Sequence of Delta-type opioid receptor (Rattus norvegicus) (P33533 whole entry): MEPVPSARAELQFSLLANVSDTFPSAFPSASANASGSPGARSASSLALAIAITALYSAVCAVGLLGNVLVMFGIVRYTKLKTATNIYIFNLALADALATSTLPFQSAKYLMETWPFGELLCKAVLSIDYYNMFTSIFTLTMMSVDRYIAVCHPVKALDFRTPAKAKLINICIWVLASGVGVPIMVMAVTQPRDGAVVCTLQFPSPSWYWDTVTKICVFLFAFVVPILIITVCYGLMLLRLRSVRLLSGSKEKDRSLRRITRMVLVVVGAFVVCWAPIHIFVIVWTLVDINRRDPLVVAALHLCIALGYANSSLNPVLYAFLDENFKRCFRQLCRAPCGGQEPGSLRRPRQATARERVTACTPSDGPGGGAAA
T3 sequence (P41145 whole entry): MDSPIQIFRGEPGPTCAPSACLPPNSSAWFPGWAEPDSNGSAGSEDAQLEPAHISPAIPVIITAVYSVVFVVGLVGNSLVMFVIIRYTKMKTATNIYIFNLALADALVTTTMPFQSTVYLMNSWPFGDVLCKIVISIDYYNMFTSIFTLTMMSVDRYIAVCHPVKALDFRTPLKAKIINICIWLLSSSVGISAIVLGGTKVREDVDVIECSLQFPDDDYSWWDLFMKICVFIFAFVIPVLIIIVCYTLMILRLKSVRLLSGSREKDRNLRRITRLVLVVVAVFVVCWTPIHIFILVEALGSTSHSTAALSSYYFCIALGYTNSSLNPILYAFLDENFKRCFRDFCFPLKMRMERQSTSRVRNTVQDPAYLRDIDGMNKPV
Sequence of Mu-type opioid receptor (Rattus norvegicus) (P33535 whole entry): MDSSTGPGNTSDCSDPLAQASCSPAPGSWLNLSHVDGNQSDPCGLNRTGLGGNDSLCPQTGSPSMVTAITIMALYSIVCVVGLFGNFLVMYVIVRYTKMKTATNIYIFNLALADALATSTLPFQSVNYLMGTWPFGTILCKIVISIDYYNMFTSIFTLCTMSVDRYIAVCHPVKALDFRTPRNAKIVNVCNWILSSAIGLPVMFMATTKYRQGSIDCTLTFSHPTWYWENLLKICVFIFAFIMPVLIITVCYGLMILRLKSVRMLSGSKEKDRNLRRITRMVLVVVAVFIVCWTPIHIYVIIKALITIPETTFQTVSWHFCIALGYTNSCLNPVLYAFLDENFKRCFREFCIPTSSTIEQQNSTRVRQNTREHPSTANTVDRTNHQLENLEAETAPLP
T2 sequence (P35372 whole entry): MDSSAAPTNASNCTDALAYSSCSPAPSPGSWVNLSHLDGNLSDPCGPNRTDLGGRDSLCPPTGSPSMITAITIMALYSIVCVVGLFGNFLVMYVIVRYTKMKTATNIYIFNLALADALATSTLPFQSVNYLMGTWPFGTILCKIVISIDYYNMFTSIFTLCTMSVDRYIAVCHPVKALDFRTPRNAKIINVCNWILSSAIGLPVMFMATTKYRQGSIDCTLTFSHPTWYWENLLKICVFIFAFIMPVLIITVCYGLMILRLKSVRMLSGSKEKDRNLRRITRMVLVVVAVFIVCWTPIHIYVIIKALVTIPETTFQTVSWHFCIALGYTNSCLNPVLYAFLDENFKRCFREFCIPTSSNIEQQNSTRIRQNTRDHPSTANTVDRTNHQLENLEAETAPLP
T4 sequence (P32300 whole entry): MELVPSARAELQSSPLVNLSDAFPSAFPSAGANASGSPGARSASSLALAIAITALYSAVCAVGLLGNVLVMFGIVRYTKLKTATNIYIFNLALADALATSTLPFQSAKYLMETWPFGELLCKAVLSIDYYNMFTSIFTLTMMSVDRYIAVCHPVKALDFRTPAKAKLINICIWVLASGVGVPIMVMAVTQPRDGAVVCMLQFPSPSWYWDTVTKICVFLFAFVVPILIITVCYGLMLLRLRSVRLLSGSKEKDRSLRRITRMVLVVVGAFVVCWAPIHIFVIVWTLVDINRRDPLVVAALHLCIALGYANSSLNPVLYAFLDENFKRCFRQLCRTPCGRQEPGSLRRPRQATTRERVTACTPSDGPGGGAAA
Sequence of Delta-type opioid receptor (Rattus norvegicus, UniProt P33533) (P33533 whole entry): as the sequence (P33533 whole entry) above
Sequence of Mu-type opioid receptor (Cavia porcellus, UniProt P97266) (P97266 whole entry): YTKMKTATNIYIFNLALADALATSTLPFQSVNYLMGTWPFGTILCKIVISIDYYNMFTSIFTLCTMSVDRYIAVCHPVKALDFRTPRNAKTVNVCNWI
Sequence of Kappa-type opioid receptor (Rattus norvegicus, UniProt P34975) (P34975 whole entry): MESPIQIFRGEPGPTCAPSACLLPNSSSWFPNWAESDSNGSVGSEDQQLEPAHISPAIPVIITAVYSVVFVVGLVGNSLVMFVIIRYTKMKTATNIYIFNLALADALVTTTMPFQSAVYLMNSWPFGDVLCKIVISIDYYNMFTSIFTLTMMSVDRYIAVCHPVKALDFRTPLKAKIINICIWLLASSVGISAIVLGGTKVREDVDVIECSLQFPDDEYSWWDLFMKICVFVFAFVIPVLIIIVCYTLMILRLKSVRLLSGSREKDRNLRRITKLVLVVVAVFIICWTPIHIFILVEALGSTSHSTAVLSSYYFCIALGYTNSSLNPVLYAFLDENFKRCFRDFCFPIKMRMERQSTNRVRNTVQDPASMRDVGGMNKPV
Sequence of Mu-type opioid receptor (Rattus norvegicus, UniProt P33535) (P33535 whole entry): as the sequence (P33535 whole entry) above
Sequence of Delta-type opioid receptor (Mus musculus) (P32300 whole entry): as the sequence (P32300 whole entry) above

## O=C1c2ccc(O)cc2[C@@]23CCCC[C@H]2[C@@H]1N(CC1CCCO1)CC3 (stereo not given in full)
[1]
  Ki: 1 nM
[2]
  Ki: 0.38 nM
[3]
  Ki: 0.18 nM

## CO[C@@]12CCC(=O)[C@]3(C)Oc4c(O)ccc5c4[C@@]31CCN(C)[C@@H]2C5
[1]
  Ki: 13.3 nM
[2]
  Ki: 0.01 nM
[3]
  Ki: 25.2 nM

## NC(=O)[C@@H]1CSSC[C@@H](NC(=O)[C@@H](N)Cc2ccc(O)cc2)C(=O)N[C@@H](Cc2ccccc2)C(=O)N[C@@H](Cc2ccccc2)C(=O)N1 (H-Y[dC]FFC-NH2; disulfide 2-5)
[4]
  Emax: 77%
[5]
  Emax: 69%

## C[C@H]1[C@H]2Cc3ccc(O)cc3[C@]1(C)CCN2CCC(=O)Nc1ccccc1
[1]
  Ki: 29 nM
[2]
  Ki: 0.83 nM
[6]
  ED50: 2.03 mg/kg

## Cc1cc(O)cc(C)c1C[C@H](N)C(=O)N1Cc2ccccc2C[C@H]1CN[C@@H](Cc1ccccc1)C(=O)N[C@@H](Cc1ccccc1)C(N)=O
[1]
  Ki: 0.44 nM
[2]
  Ki: 0.94 nM

## Cc1cc(O)cc(C)c1C[C@H](N)C(=O)N1Cc2ccccc2C[C@@H]1C(=O)NCC(=O)N(c1ccccc1)c1ccccc1
[7]
  EC50: 4.8 nM
[8]
  Ki: 1.71 nM
[9]
  Ki: 0.94 nM
[10]
  IC50: 8.3 nM

## CCCC[C@@H]1NC(=O)[C@H](Cc2cccc3ccccc23)NC(=O)[C@H](NC(=O)[C@@H](N)Cc2ccc(O)cc2)CSSC[C@@H](C(=O)O)NC1=O
[11]
  EC50: 5.1 nM
[12]
  EC50: 22 nM

## NC(=O)[C@@H]1CSCSC[C@@H](NC(=O)[C@@H](N)Cc2ccc(O)cc2)C(=O)N[C@@H](Cc2ccccc2)C(=O)N[C@@H](Cc2ccccc2)C(=O)N1 (H-Y[dC]FFC-NH2; linker 2-5 via CH2)
[1]
  Ki: 1.8 nM
[2]
  Ki: 0.016 nM

## CN1CC[C@]23c4c5ccc(O)c4O[C@H]2[C@@H](O)C=C[C@H]3[C@H]1C5 [MORPHINE]
[6]
  ED50: 2.7 mg/kg

## Nc1nc2cc3c(cc2s1)CC1[C@@H]2CCCC[C@]32CCN1CC1CC1
[13]
  Ki: 0.049 nM
[14]
  EC50: 73 nM
[15]
  ED50: 1.94 mg/kg
[16]
  ED50: 1.46 mg/kg
[17]
  Ki: 1.5 nM

## Cc1cc(O)cc(C)c1C[C@H](N)C(=O)N1Cc2ccccc2C[C@H]1C(=O)NCC(=O)NCc1ccccc1 (H-[Dmt]-[Tic]-Gly-NHBn)
[18]
  EC50: 2.57 nM
[19]
  Kb: 0.708 nM
[20]
  EC50: 31.6 nM
[1]
  Ki: 0.16 nM
[21]
  Ki: 0.151 nM
[22]
  Ki: 16.2 nM
[2]
  Ki: 0.031 nM

## N[C@@H](Cc1ccc(O)cc1)C(=O)N1Cc2ccccc2CC1CN[C@@H](Cc1ccccc1)C(=O)NC(CC1CCCCC1)C(=O)O (stereo not given in full)
[23]
  Ke: 0.175 nM
[1]
  Ki: 0.259 nM
[2]
  Ki: 1050 nM

## Cc1cc(O)cc(C)c1C[C@H](N)C(=O)N1Cc2ccccc2C[C@H]1C(=O)N[C@@H](Cc1ccccc1)C(=O)N[C@@H](Cc1ccccc1)C(N)=O (H-[Dmt][Tic]FF-NH2)
[2]
  Ki: 1.19 nM

## O=C(CCCCCCCCC(=O)Oc1ccc2c(c1)[C@@]13CCCC[C@H]1[C@@H](C2)N(CC1CCC1)CC3)Oc1ccc2c(c1)[C@@]13CCCC[C@H]1[C@@H](C2)N(CC1CCC1)CC3
[24]
  ED50: 3 nmol

## CCCC[C@@H]1NC(=O)[C@H](Cc2cccc3ccccc23)NC(=O)[C@@H](NC(=O)[C@@H](N)Cc2ccc(O)cc2)CSSC[C@H](C(N)=O)NC1=O
[4]
  Emax: 100%
[5]
  Emax: 100%

## CN1CC[C@]23c4c5ccc(O)c4O[C@@]2(C)c2[nH]c4ccccc4c2C[C@@]3(CCCc2ccccc2)[C@H]1C5
[1]
  Ki: 1.95 nM
[2]
  Ki: 10.2 nM
[25]
  EC50: 45.1 nM
[26]
  EC50: 0.87 nM

## Cc1cc(O)cc(C)c1C[C@H](N)C(=O)N1Cc2ccccc2C[C@H]1C(=O)NCC(=O)Nc1ccccc1 (H-[Dmt]-[Tic]-Gly-NHPh)
[1]
  Ki: 0.16 nM
[2]
  Ki: 0.042 nM

## Oc1ccc2c(c1)[C@@]13CCCC[C@H]1[C@@H](C2)N(CC1CCC1)CC3 [BUTORPHAN]
[3]
  Ki: 0.073 nM

## O=C(/C=C/C(=O)Oc1ccc2c(c1)[C@@]13CCCC[C@H]1[C@@H](C2)N(CC1CCC1)CC3)Oc1ccc2c(c1)[C@@]13CCCC[C@H]1[C@@H](C2)N(CC1CCC1)CC3
[27]
  EC50: 4.3 nM
[24]
  ED50: 0.27 nmol

## CCCC[C@@H]1NC(=O)[C@H](Cc2cccc3ccccc23)NC(=O)[C@@H](NC(=O)[C@@H](N)Cc2ccc(O)cc2)CSSC[C@H](C(=O)O)NC1=O
[4]
  Emax: 100%
[5]
  Emax: 100%

## Cc1cc(O)cc(C)c1C[C@H](N)C(=O)N1Cc2ccccc2C[C@@H]1C(=O)NCC(=O)NCc1ccccc1 (H-[Dmt]-[dTic]-Gly-NHBn)
[28]
  pKb: 9.81

## Cc1cc(O)cc(C)c1C[C@H](N)C(=O)N1Cc2ccccc2C[C@H]1C(=O)NCC(=O)N1CCc2ccccc2C1
[7]; cho
  EC50: 22 nM
[8]; cho
  Ki: 3.3 nM
[9]; cho
  Ki: 0.75 nM
[10]; cho
  IC50: 2.3 nM

## NC(=O)[C@H]1CSCSC[C@H](NC(=O)[C@@H](N)Cc2ccc(O)cc2)C(=O)N[C@@H](Cc2ccccc2)C(=O)N[C@@H](Cc2ccc3ccccc3c2)C(=O)N1
[1]
  Ki: 0.48 nM
[2]
  Ki: 0.47 nM
[3]
  Ki: 1.3 nM
[25]
  Emax: 99%
[29]
  Emax: 89%
[30]
  EC50: 36 nM

## C=CCN1C[C@H](C)N([C@@H](c2cccc(O)c2)c2cccc(C(=O)N(C)c3cccc(F)c3)c2)C[C@H]1C
[20]
  IC50: 1 nM
[31]
  Ki: 0.46 nM
[32]
  IC50: 3.4 nM

## CN1CC[C@]23c4c5ccc(O)c4O[C@@]2(CO)C(=O)CC[C@@]3(O)[C@H]1C5
[33]
  Ki: 208 nM
[7]
  EC50: 35 nM
[8]
  Ki: 3.2 nM
[34]
  ED50: 4.3 mg/kg

## CCCC[C@@H]1NC(=O)[C@H](Cc2cccc3ccccc23)NC(=O)[C@H](NC(=O)[C@@H](N)Cc2ccc(O)cc2)CSSC[C@@H](C(N)=O)NC1=O
[12]
  EC50: 22 nM

## Cc1cc(O)cc(C)c1C[C@H](N)C(=O)N1Cc2ccccc2C[C@@H]1C(=O)NCc1nc2ccccc2[nH]1
[18]
  EC50: 0.02 nM
[35]
  EC50: 0.0813 nM
[1]
  Ki: 0.021 nM
[2]
  Ki: 0.5 nM
